# Source: patent US20240116985A1, “STAPLED PEPTIDES AND METHODS THEREOF” (priority 2020, published 2024)
# Target: T1, full-length beta-Catenin (Uniprot ID P35222) (Homo sapiens, UniProt P35222)
# T1 construct: 10 nM full-length beta-Catenin (Uniprot ID P35222)
# T1 sequence (P35222 1-781): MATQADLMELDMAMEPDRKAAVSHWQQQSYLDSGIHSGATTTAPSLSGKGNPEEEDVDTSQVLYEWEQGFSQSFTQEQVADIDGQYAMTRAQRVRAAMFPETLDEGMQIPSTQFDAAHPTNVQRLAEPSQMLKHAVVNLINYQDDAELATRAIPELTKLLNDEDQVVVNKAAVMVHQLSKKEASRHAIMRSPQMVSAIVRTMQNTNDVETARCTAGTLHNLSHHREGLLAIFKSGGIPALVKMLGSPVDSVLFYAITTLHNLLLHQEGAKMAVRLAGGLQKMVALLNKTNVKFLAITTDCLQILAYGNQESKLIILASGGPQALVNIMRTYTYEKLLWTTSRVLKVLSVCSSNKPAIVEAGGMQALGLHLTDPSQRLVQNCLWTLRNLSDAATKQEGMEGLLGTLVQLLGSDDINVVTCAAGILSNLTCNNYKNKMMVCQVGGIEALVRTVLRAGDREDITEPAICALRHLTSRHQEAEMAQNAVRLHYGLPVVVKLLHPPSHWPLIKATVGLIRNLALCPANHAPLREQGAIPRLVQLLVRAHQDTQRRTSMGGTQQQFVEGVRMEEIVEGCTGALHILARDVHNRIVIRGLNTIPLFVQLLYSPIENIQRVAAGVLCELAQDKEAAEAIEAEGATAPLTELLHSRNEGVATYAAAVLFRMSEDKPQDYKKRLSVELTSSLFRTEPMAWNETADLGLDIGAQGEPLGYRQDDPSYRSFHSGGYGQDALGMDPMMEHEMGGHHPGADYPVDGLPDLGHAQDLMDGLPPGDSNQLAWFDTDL
# Assay: Fluorescence polarization IC50 (beta-catenin / 5FAM-TCF4 10-53 competition)
# Format: binding
# Conditions: beta-Catenin FP IC50 (nM), fluorescence polarization
row,Structure (SMILES),IC50
1,"C[C@@H]1NC(=O)[C@H](C)NC(=O)[C@H](CC(=O)O)NC(=O)[C@H](CC(=O)O)NC(=O)C2(CCCC=CCCCOC(=O)N3CC[C@@](C(=O)N[C@@H](Cc4ccsc4)C(=O)N[C@@H](Cc4csc5ccccc45)C(=O)N[C@@H](Cc4c[nH]cn4)C(N)=O)(C3)NC(=O)[C@H](CCC(N)=O)NC(=O)[C@H](Cc3ccccc3)NC1=O)CCCC=CC[C@]1(CCCN1C(=O)CBr)C(=O)N[C@@H](CC(=O)O)C(=O)N[C@@H](CC(C)(C)C)C(=O)N2 (stereo partly drawn) [I-2285, BrAc-PL3-Asp-Npg-B5-Asp-Asp-Ala-Ala-Phe-Gln-PyrS2-3Thi-BztA-His-NH2]",94 nM

# Same assay, conditions: fluorescence polarization; read-out: beta-Catenin FP IC50
row,Structure (SMILES),IC50
1,"CC(=O)N1CCC[C@]12CC=CCCCC1(CCCC=CCCCOC(=O)N3CC[C@@](C(=O)N[C@@H](Cc4ccccc4)C(=O)N[C@@H](Cc4csc5ccccc45)C(=O)N[C@@H](CCC(N)=O)C(N)=O)(C3)NC(=O)[C@H](CC(C)C)NC(=O)[C@H](Cc3ccccc3)NC(=O)[C@H](C)NC(=O)[C@H](C)NC(=O)[C@H](CCC(N)=O)NC(=O)[C@H](CC(=O)O)NC1=O)NC(=O)[C@H](CC(C)(C)C)NC(=O)[C@H](CCO)NC2=O (stereo partly drawn) [I-2443, Ac-PL3-Hse-Npg-B5-Asp-Gln-Ala-Ala-Phe-Leu-PyrS2-Phe-BztA-Gln-NH2]",6670 nM
2,"CC(=O)N1CCC[C@]12CCCCC[C@@](C)(C(=O)N[C@@H](CC(=O)O)C(=O)N[C@@H](CC(=O)O)C(=O)N[C@@H](C)C(=O)N[C@@H](C)C(=O)N[C@@H](Cc1ccccc1)C(=O)N[C@@H](CC(C)C)C(=O)NC(C)(C)C(=O)N[C@@H](Cc1ccsc1)C(=O)N[C@@H](Cc1csc3ccccc13)C(=O)N[C@@H](CCC(N)=O)C(N)=O)NC(=O)[C@H](CC(C)(C)C)NC(=O)[C@H](CC(=O)O)NC2=O [I-1982, Ac-PL3-Asp-Npg-S4-Asp-Asp-Ala-Ala-Phe-Leu-Aib-3Thi-BztA-Gln-NH2]",9660 nM
3,"CC(=O)N1CCC[C@]12CC=CCCCC1(CCCC=CCCCOC(=O)N3CC[C@@](C(=O)N[C@@H](Cc4ccsc4)C(=O)N[C@@H](Cc4cccc5ccccc45)C(=O)N[C@@H](CCC(N)=O)C(N)=O)(C3)NC(=O)[C@H](CC(N)=O)NC(=O)[C@H](Cc3ccccc3)NC(=O)[C@H](C)NC(=O)[C@H](C)NC(=O)[C@H]([C@@H](C)O)NC(=O)[C@H](CC(N)=O)NC1=O)NC(=O)[C@H](CC(C)(C)C)NC(=O)[C@H](CC(=O)O)NC2=O (stereo partly drawn) [I-1870, Ac-PL3-Asp-Npg-B5-Asn-Thr-Ala-Ala-Phe-Asn-PyrS2-3Thi-1NapA-Gln-NH2]",1520 nM
4,"CC(=O)N1CCC[C@]12CC=CCCCC1(CCCC=CCCCOC(=O)N3CC[C@@](C(=O)N[C@@H](Cc4ccccc4)C(=O)N[C@@H](Cc4csc5ccccc45)C(=O)N[C@@H](CCC(N)=O)C(N)=O)(C3)NC(=O)[C@H](CC(C)C)NC(=O)[C@H](CC3CCCCC3)NC(=O)[C@H](C)NC(=O)[C@H](CCCCNC(C)C)NC(=O)[C@H](CCC(N)=O)NC(=O)[C@H](CC(=O)O)NC1=O)NC(=O)[C@H](CC(C)(C)C)NC(=O)[C@H](CC(N)=O)NC2=O (stereo partly drawn) [I-1649, Ac-PL3-Asn-Npg-B5-Asp-Gln-iPrLys-Ala-Cha-Leu-PyrS2-Phe-BztA-Gln-NH2]",2480 nM
5,"CC(=O)N1CCC[C@]12CCCCCCC1(CCCCCCCCOC(=O)N3CC[C@](C(=O)N[C@@H](Cc4ccsc4)C(=O)N[C@@H](Cc4csc5ccccc45)C(=O)N[C@@H](CCC(N)=O)C(N)=O)(C3)NC(=O)[C@H](CC(N)=O)NC(=O)[C@H](Cc3ccccc3)NC(=O)[C@H](C)NC(=O)[C@H](C)NC(=O)[C@H](CC(=O)O)NC(=O)[C@H](CC(=O)O)NC1=O)NC(=O)[C@H](CC(C)(C)C)NC(=O)[C@H](CC(=O)O)NC2=O (stereo partly drawn) [I-2021, Ac-PL3-Asp-Npg-B5-Asp-Asp-Ala-Ala-Phe-Asn-PyrR2-3Thi-BztA-Gln-NH2]",5380 nM

# More lines, now with the values ahead:
row,IC50,Structure (SMILES)
1,123 nM,"CC(=O)N1CCC[C@]12CCCCCCC1(CCCCCCCCOC(=O)N3CC[C@@](C(=O)N[C@@H](Cc4ccccc4C(F)(F)F)C(=O)N[C@@H](Cc4csc5ccccc45)C(=O)N[C@@H](CCC(N)=O)C(N)=O)(C3)NC(=O)[C@H](CC(C)C)NC(=O)[C@H](Cc3ccccc3)NC(=O)[C@H](C)NC(=O)[C@H](C)NC(=O)[C@H](Cc3cccc(C(=O)O)c3)NC(=O)[C@H](CC(=O)O)NC1=O)NC(=O)[C@H](CC(C)(C)C)NC(=O)[C@H](CC(=O)O)NC2=O (stereo partly drawn) [I-1604, Ac-PL3-Asp-Npg-B5-Asp-3COOHF-Ala-Ala-Phe-Leu-PyrS2-2F3MeF-BztA-Gln-NH2]"
2,324 nM,"CC(=O)N1CCC[C@]12CCCCCC1(CCCCCCOC(=O)N3CC[C@@](C(=O)N[C@@H](Cc4ccsc4)C(=O)N[C@@H](Cc4csc5ccccc45)C(=O)N[C@@H](CCC(N)=O)C(N)=O)(C3)NC(=O)[C@H](CC(C)C)NC(=O)[C@H](Cc3ccccc3)NC(=O)[C@H](C)NC(=O)[C@H](C)NC(=O)[C@H](CC(=O)O)NC(=O)[C@H](CC(=O)O)NC1=O)NC(=O)[C@H](CC(C)(C)C)NC(=O)[C@H](CC(=O)O)NC2=O (stereo partly drawn) [I-1974, Ac-PL3-Asp-Npg-B4-Asp-Asp-Ala-Ala-Phe-Leu-PyrS1-3Thi-BztA-Gln-NH2]"
3,602 nM,"CC(=O)N1CCC[C@]12CC=CCCCC1(CCCC=CCCOC(=O)N3CCC(C(=O)N[C@@H](Cc4ccsc4)C(=O)N[C@@H](Cc4csc5ccccc45)C(=O)N[C@@H](C)C(N)=O)(CC3)NC(=O)[C@H](CC(C)C)NC(=O)[C@H](Cc3ccccc3)NC(=O)[C@H](C)NC(=O)[C@H](CCC(N)=O)NC(=O)[C@H](Cc3cccc(C(=O)O)c3)NC(=O)[C@H](CC(=O)O)NC1=O)NC(=O)[C@H](CC(C)(C)C)NC(=O)[C@H](CC(=O)O)NC2=O (stereo partly drawn) [I-2591, Ac-PL3-Asp-Npg-B5-Asp-3COOHF-Gln-Ala-Phe-Leu-SPip1-3Thi-BztA-Ala-NH2]"
4,993 nM,"CC(=O)N1CCC[C@]12CC=CCCCC1(CCCC=CCCOC(=O)N3CCC(C(=O)N[C@@H](Cc4ccccc4C(F)(F)F)C(=O)N[C@@H](Cc4csc5ccccc45)C(=O)N[C@@H](CCC(N)=O)C(N)=O)(CC3)NC(=O)[C@H](CC(C)C)NC(=O)[C@H](Cc3ccccc3)NC(=O)[C@H](C)NC(=O)[C@H](C)NC(=O)[C@H](Cc3cccc(C(=O)O)c3)NC(=O)[C@H](CC(=O)O)NC1=O)NC(=O)[C@H](CC(C)(C)C)NC(=O)[C@H](CC(=O)O)NC2=O (stereo partly drawn) [I-2580, Ac-PL3-Asp-Npg-B5-Asp-3COOHF-Ala-Ala-Phe-Leu-SPip1-2F3MeF-BztA-Gln-NH2]"
5,168 nM,"CC(=O)N1CCC[C@]12CCCCCCC1(CCCCCCCCOC(=O)N3CC[C@@](C(=O)N[C@@H](Cc4ccccc4Cl)C(=O)N[C@@H](Cc4csc5ccccc45)C(=O)N[C@@H](CCC(N)=O)C(N)=O)(C3)NC(=O)[C@H](CC(N)=O)NC(=O)[C@H](Cc3ccccc3)NC(=O)[C@H](C)NC(=O)[C@H](C)NC(=O)[C@H](CC(=O)O)NC(=O)[C@H](CC(=O)O)NC1=O)NC(=O)[C@H](CC(C)(C)C)NC(=O)[C@H](CC(=O)O)NC2=O (stereo partly drawn) [I-1464, Ac-PL3-Asp-Npg-B5-Asp-Asp-Ala-Ala-Phe-Asn-PyrS2-2C1F-BztA-Gln-NH2]"
6,60 nM,"CC(=O)N1CCC[C@]12CC=CCCCC1(CCCC=CCCCOC(=O)N3CC[C@@](C(=O)N[C@@H](Cc4ccsc4)C(=O)N[C@@H](Cc4csc5ccccc45)C(=O)N[C@@H](C)C(N)=O)(C3)NC(=O)[C@H](CC(C)C)NC(=O)[C@H](Cc3ccccc3)NC(=O)[C@H](C)NC(=O)C(C)(C)NC(=O)[C@H](Cc3cc(C(=O)O)cc(C(F)(F)F)c3)NC(=O)[C@H](CC(=O)O)NC1=O)NC(=O)[C@H](CC(C)(C)C)NC(=O)[C@H](CC(=O)O)NC2=O (stereo partly drawn) [I-2212, Ac-PL3-Asp-Npg-B5-Asp-5F3Me3COOHF-Aib-Ala-Phe-Leu-PyrS2-3Thi-BztA-Ala-NH2]"
7,36 nM,"CC(=O)N1CCC[C@]12CC=CCCCC1(CCCC=CCCCOC(=O)N3CC[C@@](C(=O)N[C@@H](Cc4ccsc4)C(=O)N[C@@H](Cc4csc5ccccc45)C(=O)N[C@@H](CCC(N)=O)C(=O)NC4CCCCC4)(C3)NC(=O)[C@H](CC(N)=O)NC(=O)[C@H](Cc3ccccc3)NC(=O)[C@H](C)NC(=O)[C@H](C)NC(=O)[C@H](CN(CC(=O)O)CC(F)(F)F)NC(=O)[C@H](CC(=O)O)NC1=O)NC(=O)[C@H](CC(C)(C)C)NC(=O)[C@H](CC(=O)O)NC2=O (stereo partly drawn) [I-1642, Ac-PL3-Asp-Npg-B5-Asp-TfeGA-Ala-Ala-Phe-Asn-PyrS2-3Thi-BztA-Gln-NHCyHe]"
8,5 nM,"CC(=O)N1CCC[C@]12CC=CCCCC1(CCCC=CCCCOC(=O)N3CC[C@@](C(=O)N[C@@H](Cc4ccsc4)C(=O)N[C@@H](Cc4csc5ccccc45)C(=O)N[C@@H](CCC(N)=O)C(N)=O)(C3)NC(=O)[C@H](CCC(=O)N3CCn4cncc4C3)NC(=O)[C@H](Cc3ccccc3)NC(=O)[C@H](C)NC(=O)[C@H](C)NC(=O)[C@H](CN(CC(=O)O)CC(F)(F)F)NC(=O)[C@H](CC(=O)O)NC1=O)NC(=O)[C@H](CC(C)(C)C)NC(=O)[C@H](CC(=O)O)NC2=O (stereo partly drawn) [I-1934, Ac-PL3-Asp-Npg-B5-Asp-TfeGA-Ala-Ala-Phe-[H4IAP]GlnR-PyrS2-3Thi-BztA-Gln-NH2]"
